In paper PMC10572563, “Application of Pluronics for Enhancing Aqueous Solubility of Lipophilic Microtubule Destabilizing Compounds on the Sea Urchin Embryo Model” (International Journal of Molecular Sciences, 2023):
“And” between values parts separate entries of the source, which are not always exact repeats. Equal values may be shown once. Read-outs that look alike come from different tables or passages of the source.

Tests used:
[1] = Aqueous solubility of chalcones in PBS or Pluronic solutions (UV absorbance of saturated supernatant); format: physicochemical; conditions: for Increase of solubility: Pluronic P123 concentration up to 10%, 25 °C; for Increase of solubility / solubility: PBS pH 7.4; for Enhancement of solubility in aqueous medium: in the presence of 5% Pluronic 123; for solubility: phosphate-buffered saline (PBS) without Pluronics, aqueous with cosolvent or surfactant or cyclodextrin, kinetic from dmso stock, without Pluronics
Protocol: The absorbance of chalcone solutions in DMSO was measured using an Ultrospec 1100 Pro UV/Vis spectrophotometer. […] To this end, 100 mg/mL solutions of 3 and 4 in DMSO were prepared and diluted 10-fold either with neat PBS or with Pluronic solutions of various concentrations. Dilution with PBS yielded the precipitation of the most part of the solute. The precipitated chalcones were removed via centrifugation at 9000 rpm for 5 min. The supernatant represented a saturated solution of the chalcone in the aqueous medium. Then, the supernatants were 10–1000-fold diluted with DMSO, their absorbance was measured at 367 nm for 3 or 350 nm for 4, and the aqueous solubility of chalcones was calculated using the εDMSO values obtained previously. The solubility values were measured in 2–4 repetitions and presented in the graphs as the mean ± SD for p < 0.05.

[2] = Precipitation in 1 mM intermediate solutions (visual and microscopic examination); format: physicochemical; conditions: for Appearance of 1 mM/FSW intermediate solution: 1 mM in FSW; for Appearance of 1 mM solution in 5% F127: 1 mM in 5% F127, room temperature
Protocol: Stock solutions of albendazole 1 and isoxazole 2 were prepared in DMSO and 2-pyrrolidone at 10 mM concentration, and stock solutions of chalcones 3 and 4 were prepared in DMSO at 10 mM concentration. […] The precipitation of compounds was analyzed via both visual and microscopic examination.

sea urchin embryos = test system: sea urchin embryos
Protocol: Toxic effects were assessed by exposing fertilized eggs (5−18 min after fertilization) to 2-fold decreasing concentrations of Pluronics. Embryo development was monitored at room temperature until the beginning of active feeding (four-arm mid-pluteus stage). The effects were detected at the following developmental stages: cleavage (2.5 and 5.5–6 h after fertilization), hatched mid-blastula (8.5–9.5 h), mesenchyme blastula (~11 h), prism (20–21 h), early pluteus (25–27 h), and four-arm pluteus (34–35 h) (Figure S2). The effects were estimated quantitatively as no observed effect concentration (NOEC), minimum effective concentration (MEC), and minimum lethal concentration (MLC).

[3] = pH 7.0; cited from earlier work
[4] = solvents in the in vivo sea urchin embryo assay

COc1ccc(/C=C/C(=O)c2cc(OC)c(OC)c(OC)c2)cc1 [compound 4]
Increase of solubility [1]: 19 fold | Enhancement of solubility in aqueous medium [1]: enhanced by an order of magnitude | solubility [1]: 88.7 µg/mL and 270 µM | Appearance of 1 mM/FSW intermediate solution [2]: formed a thick suspension of fine crystals

O=C1CCCN1 [2-pyrrolidone, 2-Pyrrolidone]
NOEC (sea urchin embryos; [4]): 0.1 % v/v

COc1ccc(/C=C/C(=O)c2cc(OC)c(OC)c(OC)c2)cc1O [compound 3]
Increase of solubility [1]: 13 fold | Enhancement of solubility in aqueous medium [1]: enhanced by an order of magnitude | solubility [1]: 344 µg/mL and 1000 µM | Appearance of 1 mM/FSW intermediate solution [2]: clear without any visible signs of precipitation

C[S+](C)[O-] [DMSO]
NOEC (sea urchin embryos; [4]): 0.2 % v/v

COc1ccc(-c2cnoc2-c2cc(OC)c(OC)c(OC)c2)cc1 [compound 2]
Appearance of 1 mM solution in 5% F127 [2]: remained clear throughout four days of storage at room temperature | Appearance of 1 mM/FSW intermediate solution [2]: opaque, followed by the precipitation of crystals in the bottom of the vial

CCO [EtOH]
NOEC (sea urchin embryos; in vivo): 0.5 % v/v

Pluronic P123
MEC relative to CMC (sea urchin embryos; in vivo): ~ 6 times | Reduction of MEC (sea urchin embryos; in vivo): 4 times

CCCSc1ccc2nc(NC(=O)OC)[nH]c2c1 [compound 1, albendazole]
Appearance of 1 mM solution in 5% F127 [2]: formed opaque 1 mM solution in 5% F127 | Appearance of 1 mM/FSW intermediate solution [2]: formed a thick suspension of fine crystals | Aqueous solubility [3]: < 1 µg/mL
